# In patent publication US12576155B2, “Senolytic and antiinflammatory prodrugs and methods of use thereof” (priority 2019, dated 2026):
# Key:
# [1] = test system: senescent mouse fibroblasts induced by ionizing irradiation, oncogene overexpression, or genotoxic stress (etoposide treatment); test: Cell viability, oncogene-, etoposide- and irradiation-induced senescent MEFs; format: cell-based; conditions: oncogene- (Kras), etoposide- and irradiation- (10 Gy) induced senescent MEFs vs non-senescent; increasing doses
# [2] = Serum biochemical test and routine blood analysis in old mice (toxicity); format: in vivo
# Procedure: All drugs were mixed in 90% PBS, 5% Tween-80 (P1754, Sigma), and 5% polyethylene glycol (PEG) (81172, Sigma) and administered to mice by intraperitoneal (i.p.) injection. […] […] Gemcitabine was purchased from MCE.
# For blood routine examination, 50 μl fresh blood was collected from each mouse and mixed with EDTA immediately. The blood samples were analyzed by Celltac Alpha MEK-6400 series hematology analyzers (Nihon Kohden, MEK-6400). For serum biochemical analysis, blood samples were collected, clotted for 2 hours at room temperature or overnight at 4° C., and then centrifuged (1000 g, 10 min) to gain serum. 200 μl serum was aliquot and analyzed of Alanine transaminase (ALT), aspartate transaminase (AST), uric acid (UA) and creatinine (CREA) by Chemistry Analyzer (Mindray, BS-350E).
# [3] = test system: SARS-CoV-2-infected rhesus macaques; test: SARS-CoV-2-infected rhesus macaques, early-stage SSK1 treatment (2.0 mg/kg once daily for 7 days from 0 dpi); format: in vivo; conditions: for Clinical observation: Body weight change (%) / Clinical observation: Increased temperature: 2.0 mg/kg
smiles,measurement,setting,value
CC(=O)OCC1O[C@@H](Oc2ccc(COC(=O)Nc3ccn([C@@H]4O[C@H](CO)C(O)C4(F)F)c(=O)n3)cc2[N+](=O)[O-])C(OC(C)=O)C(OC(C)=O)[C@H]1OC(C)=O (some centres unmarked) [SSK1],Selective killing of senescent cells (viable cells),[1],"selectively killed by SSK1, while non-senescent cells were largely unaffected"
same,Systemic toxicities (serum biochemical test and routine blood analysis),"[2]; aged mice, high concentration (100 mg/kg) and high frequency, 5 weeks, 3 injections a week",no obvious systemic toxicities
same,Apoptosis of β-gal positive epithelial tubular cells in the kidney,[2]; following SSK1 treatment,only a few cells of this tubular cell population was shown to be undergoing apoptosis
same,System toxicity (serum biochemical test and routine blood analysis),"[2]; old mice, 0.5 mg/kg for 8 weeks, FIGS. 7A and B",no obvious system toxicity
same,Progression of pulmonary infiltrates on chest X-ray,[3]; 6 dpi compared to 3 dpi,no progression
same,Clinical observation: Body weight change (%),[3]; M1 adult 5-year,+4.62%
same,Clinical observation: Increased temperature,[3]; M1 adult 5-year,light
same,Clinical observation: Body weight change (%),[3]; M2 adult 5-year,+1.64%
same,Clinical observation: Increased temperature,[3]; M2 adult 5-year,light
same,Large necrotic lesions in the livers at necropsy,[3]; SSK1-treated group,not in the SSK1-treated group
same,Lung histopathology (H&E),[3]; SSK1-treated group,minimally thickened alveolar septum and focal edema
same,Serum level of IL-18,[3]; SSK1-treated group,increased significantly
same,"Virus shedding (virus load in nose, throat, anal swabs and blood, RT-qPCR)",[3]; SSK1-treated group,no delay but even faster reduction in virus shedding
same,Body temperature,"[3]; SSK1-treated group, 2 mg/kg",relatively stable
same,Body weight,"[3]; SSK1-treated group, 2 mg/kg, 0 to 7 dpi",remained constant
same,Airway narrowing and mucinous secretions (AB-PAS staining),[3]; SSK1 treatment,recovered the airway narrowing and extensive mucinous secretions
same,Gross lung lesions at necropsy,[3]; animal M1,Some brown punctate lesions
same,Pulmonary hemorrhages (H&E),[3]; animal M1,local pulmonary hemorrhages
same,Ground-glass opacification in the lungs on X-ray,"[3]; animal M1, 2 mg/kg, 3 dpi",Ground-glass opacification appeared
same,Gross lung lesions at necropsy,[3]; animal M2,No obvious lung lesions
same,Signs of pneumonia on X-ray,"[3]; animal M2, 2 mg/kg",no signs of pneumonia on X-ray throughout the experiment
same,"Concentrations of inflammatory cytokines GM-CSF, IL-1β, IL-12, MIP-1A and TNF-α in lung tissues",[3]; vs vehicle,lower
same,Viral load in the respiratory tract tissues and multiple organs,[3]; vs vehicle-treated group,grossly lower
